Laboratory results published in US8283337B2, “Therapeutic or prophylactic agent for vasoconstriction” (Next21 K.K., priority 2007, dated 2012).

Tests used:
[1] = system: rat macrophage-like cells (RAW264.7); assay: Vasospastic cell model, PGE2/PGD2 production by ELISA after erythrocyte lysis solution; format: cell-based; conditions: blood pretreated with 10 wt % sugar, medium 5 wt % sugar, lysis solution 18 hours
Procedure: A vasospastic cell model was constructed by using […] macrophage-like cells (RAW264.7) for study on whether trehalose has anti-inflammatory action.
Physiological saline (Sal), 10 wt % trehalose (Tre) and 10 wt % maltose (Mal) were added respectively to the blood collected from a rat (10 to 12 weeks of age, male) for pretreatment, and the mixture was processed in an ultrasonic homogenizer, to prepare an erythrocyte lysis solution. 1×10^6 or 2×10^6 of RAW264.7 cells were inoculated on a plate on the day before addition of the lysis solution, and were cultured in a medium comprising physiological saline, 5 wt % trehalose and 5 wt % maltose (respectively, as abbreviated to Sal, Tre and Mal) placed in an incubator (37° C., CO2: 5%). The culture medium used was Dulbecco's Modified Eagle Medium (D-MEM) comprising 10% fetal bovine serum (FBS), penicillin and streptomycin. The next day, the lysis solution was added in an amount of 1/10 of the medium, and the mixture was incubated in the incubator (37° C., CO2: 5%) for 18 hours. Then, the cells were washed with PBS; new medium was added; and the mixture was placed in the incubator (37° C., CO2: 5%). The medium was collected after one hour for ELISA analysis. The ELISA was carried out by using Prostaglandin E2 EIA kit-monoclonal (manufactured by Cayman) or Prostaglandin D2 EIA kit (manufactured by Cayman). […] For control, a lysis solution-untreated group (added respectively with physiological saline, trehalose and maltose) was also analyzed similarly (FIG. 8, FIG. 9: right column 3). Three or more independent tests were carried out to obtain the average, and the standard deviation obtained was expressed with error bars.

[2] = system: normal human umbilical vein endothelial cells (HUVEC); assay: Vasospastic cell model, PGE2 production by ELISA after erythrocyte lysis solution; format: cell-based; conditions: lysis solution from blood pretreated with 10 wt % sugar, 6 hours
Procedure: A vasospastic cell model was constructed by using normal human umbilical vein endothelial cells (HUVEC), for study on whether trehalose has anti-inflammatory action.
Physiological saline (Sal), 10 wt % trehalose (tre) and 10 wt % maltose (Mal) were added respectively to the bloods collected from a rat (10 to 12 weeks of age, male) for pretreatment, and the mixture was processed in an ultrasonic homogenizer, to prepare an erythrocyte lysis solution. The HUVEC cells were inoculated on a plate in an amount of 1×10^5 cells on the day before the addition of the lysis solution and were cultured in an incubator (37° C., CO2: 5%). The culture medium used was endothelial cell basic medium (EBM-2) comprising 2% fetalbovine serum (FBS), hEGF (human epidermal growth factor), heparin, hydrocortisone, ascorbic acid, VEGF (vascular endothelial growth factor), R3-IGF-1 (recombinant insulin-like growth factor-1), gentamicin and amphotericin-B. The next day, the lysis solution in an amount of 1/10 of the medium was added to the HUVEC cells, and the mixture was incubated in an incubator (37° C., CO2: 5%) for 6 hours. The medium was then collected for ELISA analysis. […] The lysis solution-untreated group (added respectively with physiological saline, trehalose and maltose) was also analyzed similarly as a control group (FIG. 10: right column 3). […]

femoral artery = assay: Vasospasm model using rat femoral artery exposed to self blood; format: in vivo; conditions: 7 days after exposure; for arterial sectional area relative to saline-exposed artery: SD rat femoral artery
Excerpt: Twenty seven male SD rats of 10 weeks of age were divided into three groups randomly. These rats were properly anesthetized. The groin was cut open and then the femoral artery was divided and separated sufficiently from the surrounding soft tissue etc. The femoral artery was covered with a catheter. The catheter used was a 10 mm-length vinyl chloride cylindrical catheter. Self blood collected from femoral vein was fed into the space between the catheter and vascular adventitia and the bottom face of the cylinder was sealed with an adhesive agent. The adhesive agent used was a cyanoacrylate-based adhesive agent. The operations above were carried out aseptically and surgically. Then, the surgical injury was closed. The lumen of the blood-exposed femoral artery narrowed and the tunica intima and tunica media thickened, after peaking in about 7 days after exposure. This model is a model according to “Nakamura et al., Japan Neurosurgical Society, Abstract of 49th Annual Meeting 199, 1990”.
Left and right femoral arteries (FAs) of each rat were exposed to the substances shown in the following Table 1 by using the model above. 4% paraformaldehyde (PFA) solution was perfused, 7 days after commencement of exposure and each femoral artery was fixed and collected. The collected femoral artery (FA) was immersed in 4% PFA, and part of the femoral artery was immersed in sucrose solution and then embedded as frozen. A section of 5 μm in thickness was obtained with cryostat from the frozen femoral artery thus obtained. The section was subjected to hematoxylin-eosin staining (HE staining). The HE-stained sample was analyzed by using an image analyzer equipped with an image analysis program, and the sectional area of the lumen and the thickness of the tunica media in each tissue were determined. The radius of the blood vessel was determined from the peripheral length of the lumen of the blood vessel, and the lumen sectional area was calculated from it. In addition, the distance between the internal and external elastic layers was measured at four points, and the average thereof was determined, to obtain the thickness of the tunica media. There were cases when the blood vessel was cleaved or was not sufficiently fixed during analysis, and thus 6 samples, which were analyzed under favorable conditions, among 9 samples prepared in each group, were selected for collection of data.

cerebral vasospasm = assay: Rabbit subarachnoid hemorrhage model, intracerebral blood flow by perfusion-MRI; format: in vivo; conditions: group II, self blood + 15 wt % trehalose solution into cisterna magna, two days after second administration; blood + saline group approximately 60%
Procedure: Intracerebral blood flow was evaluated via perfusion-MRI method by using a rabbit subarachnoid hemorrhage model for analysis of the vasospasm-inhibiting action of trehalose.
After magnetic resonance imaging (MRI) of a NZW rabbit (14 weeks of age, approximately 3.0 kg, male) in the normal state, the occipital region was shaved and the cisterna magna was punctured, and blood samples [group I: self blood+physiological saline (blood+Sal), group II: self blood+15 wt % trehalose solution (blood+Tre) and group III: physiological saline (Sal)] were injected into different test animals respectively in an amount of 3 ml. Additionally, 2 ml of blood sample and physiological saline (total of 5 ml) were injected to the same test animals by a similar method, two days later. Two days after the second administration, the influence of trehalose on cerebral vasospasm was evaluated via perfusion-MRI method (cerebrovascular normality is calculated by injecting a contrast medium through otic vein into the brain and determining the degree of recovery in brightness quantitatively) by using a high-definition MRI apparatus for animals (4.7 tesla, resolution: 50 μm) manufactured by Varian. Three independent tests were carried out to obtain the average, and the standard deviation obtained was expressed with error bars.

basilar artery = assay: Rabbit subarachnoid hemorrhage model, histological analysis of basilar artery; format: in vivo; conditions: group II, self blood + 15 wt % trehalose solution
Procedure: The vasospasm-inhibiting action of trehalose was analyzed via a histological method by using a rabbit subarachnoid hemorrhage model.
After the occipital region of a NZW rabbit (14 weeks of age, approximately 3.0 kg, male) was shaved and the cisterna magna was punctured, blood samples [group I: self blood+physiological saline (blood+Sal), group II: self blood+15 wt % trehalose solution (blood+Tre) and group III: physiological saline (Sal)] were injected into different test animals respectively in an amount of 3 ml. Additionally, 2 ml of blood sample and physiological saline (total of 5 ml) were injected to the same test animal by a similar method, two days later. Two days after the second administration, the animals were perfused with 4% paraformaldehyde for stabilization, and the brain stem and the basilar arteries were collected. The tissue was embedded in paraffin, cut into a section of 5 μm in thickness, and observed after hematoxylin-eosin staining (HE staining) The results are shown in FIG. 12.

[3] = two days after second administration

In the case of `OC[C@H]1O[C@H](O[C@H]2[C@H](O)[C@@H](O)C(O)O[C@@H]2CO)[C@H](O)[C@@H](O)[C@@H]1O` (mixture of isomers) [maltose, reference compound], the “amount of PGD2 produced versus lysis solution-untreated control group” value [1] is reported as “inflammatory reaction was also induced”, the “amount of PGE2 produced versus lysis solution-untreated control group” value [1] is reported as “inflammatory reaction was also induced” and the “PGE2 production (induction of inflammatory reaction) versus lysis solution-untreated control group” value [2] is reported as “inflammatory reaction was induced”.

With `OC[C@H]1O[C@H](O[C@H]2O[C@H](CO)[C@@H](O)[C@H](O)[C@H]2O)[C@H](O)[C@@H](O)[C@@H]1O` [trehalose] the “arterial sectional area relative to saline-exposed artery” value (femoral artery; group II, trehalose 3.75 wt % (blood:15% TL solution = 3:1)) was 86%, the “tunica media thickness (after exposure to blood + trehalose / after exposure to physiological saline)” value (femoral artery; group II, trehalose 3.75 wt %) was 0.93 times and the “arterial sectional area relative to saline-exposed artery” value (femoral artery; group III, trehalose 7.5 wt % (blood:30% TL solution = 3:1)) was 39%. The “tunica media thickness (after exposure to blood + trehalose / after exposure to physiological saline)” value (femoral artery; group III, trehalose 7.5 wt %) was 1.74 times, the “amount of PGD2 produced versus lysis solution-untreated control group” value [1] was “not increased” and the “amount of PGE2 produced versus lysis solution-untreated control group” value [1] was “not increased”. For the same molecule, the “PGE2 production (induction of inflammatory reaction) versus lysis solution-untreated control group” value [2] was “induction of inflammatory reaction was suppressed”, the “normality of cerebral blood vessel (brightness after treatment/before treatment), physiological saline group = 100%” value (cerebral vasospasm) was “approximately 80%” and the “vasospasm with respect to group I (self blood + physiological saline)” value (basilar artery; basilar artery histology) was “suppressed definitely”. The “blood vessel diameter of basilar artery (HE staining)” value (basilar artery; [3]) was “no reduction of the blood vessel diameter” and the “tunica media thickness of basilar artery (HE staining)” value (basilar artery; [3]) was “some increase in tunica media thickness”.
